Target: T1, GSK-3β (AA 1-420) (Homo sapiens, UniProt P49841)
T1 construct: GSK-3β (AA 1-420)
Assay: Ki determination for the inhibition of GSK-3 (coupled enzyme system)
Type: biochemical
Conditions: 20 μM ATP, 300 μM peptide, 20 nM GSK-3β, 30° C
Protocol: Compounds were screened for their ability to inhibit GSK-3β (AA 1-420) activity using a standard coupled enzyme system (Fox et al. (1998) Protein Sci. 7, 2249). Reactions were carried out in a solution containing 100 mM HEPES (pH 7.5), 10 mM MgCl2, 25 mM NaCl, 300 μM NADH, 1 mM DTT and 1.5% DMSO. Final substrate concentrations in the assay were 20 μM ATP (Sigma Chemicals, St Louis, Mo.) and 300 μM peptide (HSSPHQS(PO3H2)EDEEE, American Peptide, Sunnyvale, Calif.). Reactions were carried out at 30° C. and 20 nM GSK-3β. Final concentrations of the components of the coupled enzyme system were 2.5 mM phosphoenolpyruvate, 300 μM NADH, 30 μg/ml pyruvate kinase and 10 μg/ml lactate dehydrogenase.
An assay stock buffer solution was prepared containing all of the reagents listed above with the exception of ATP and the test compound of interest. The assay stock buffer solution (175 μl) was incubated in a 96 well plate with 5 μl of the test compound of interest at final concentrations spanning 0.002 μM to 30 μM at 30° C. for 10 min. Typically, a 12 point titration was conducted by preparing serial dilutions (from 10 mM compound stocks) with DMSO of the test compounds in daughter plates. The reaction was initiated by the addition of 20 μl of ATP (final concentration 20 μM). Rates of reaction were obtained using a Molecular Devices Spectramax plate reader (Sunnyvale, Calif.) over 10 min at 30° C. The Ki values were determined from the rate data as a function of inhibitor concentration.

T1 sequence (P49841 whole entry, the tested form may be a part): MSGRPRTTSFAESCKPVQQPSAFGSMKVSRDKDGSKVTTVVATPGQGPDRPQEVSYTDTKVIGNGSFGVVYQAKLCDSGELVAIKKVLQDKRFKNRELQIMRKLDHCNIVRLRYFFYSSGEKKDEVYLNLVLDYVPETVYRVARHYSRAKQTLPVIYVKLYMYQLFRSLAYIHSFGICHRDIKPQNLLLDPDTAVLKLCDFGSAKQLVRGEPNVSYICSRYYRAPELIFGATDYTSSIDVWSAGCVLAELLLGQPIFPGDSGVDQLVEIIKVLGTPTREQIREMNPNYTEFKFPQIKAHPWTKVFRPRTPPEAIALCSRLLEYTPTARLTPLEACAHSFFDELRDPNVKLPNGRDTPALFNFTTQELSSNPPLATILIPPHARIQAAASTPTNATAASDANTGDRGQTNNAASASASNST

**Q.** For `O=C(NCCO)c1cc(Nc2nc(-c3ccccc3)nc3ccccc23)[nH]n1` [III-99], which Ki is on record?
**A.** 1000 to 20000 nM

**Q.** `Fc1cc(F)c2[nH]nc(Nc3nc(-c4ccccc4Cl)nc4c3CCC4)c2c1` [II-118, [2-(2-Chloro-phenyl)-6,7-dihydro-5H-cyclopentapyrimidin-4-yl]-(5,7-difluoro-1R-indazol-3-yl)-amine] was tested. Which Ki did it give?
**A.** < 100 nM

**Q.** `O=c1cc2[nH]nc(Nc3nc(-c4ccccc4)nc4ccccc34)c2nn1-c1ccccc1` [III-135, (6-Oxo-5-phenyl-5,6-dihydro-1H-pyrazolo[4,3-c]pyridazin-3-yl)-(2-phenyl-quinazolin-4-yl)-amine] was tested. Which Ki did it give?
**A.** 100 to 1000 nM

**Q.** For `Fc1cccc2c(Nc3nc(-c4ccccc4C(F)(F)F)nc4c3CCCCC4)n[nH]c12` [II-14, (7-Fluoro-1H-indazol-3-yl)-[2-(2-trifluoromethyl-phenyl)-6,7,8,9-tetrahydro-5H-cycloheptapyrimidin-4-yl]-amine], which Ki is on record?
**A.** < 100 nM

**Q.** `Cc1cc(Nc2nc(-c3ccncc3)nc3ccc(Cl)cc23)[nH]n1` [III-29, (6-Chloro-2-pyridin-4-yl-quinazolin-4-yl)-(5-methyl-2H-pyrazol-3-yl)-amine] was tested. Which Ki did it give?
**A.** 100 to 1000 nM

**Q.** Which Ki does the source give for `FC(F)(F)c1ccccc1-c1nc(Nc2n[nH]c3ccccc23)cc(-c2ccccn2)n1` [II-22, (1H-Indazol-3-yl)-[6-(pyridin-2-yl)-2-(2-trifluoromethyl-phenyl)-pyrimidin-4-yl]-amine] here?
**A.** 100 to 1000 nM

**Q.** How did the Ki turn out when `Clc1ccccc1-c1nc2c(c(Nc3n[nH]c4ccccc34)n1)CCCCC2` [II-2, [2-(2-Chloro-phenyl)-6,7,8,9-tetrahydro-5H-cycloheptapyrimidin-4-yl]-(1H-indazol-3-yl)-amine] was run?
**A.** < 100 nM

**Q.** Which Ki does the source give for `FC(F)(F)c1ccccc1-c1nc(Nc2n[nH]c3cccc(C(F)(F)F)c23)c2ccccc2n1` [II-65, (4-Trifluoromethyl-1H-indazol-3-yl)-[2-(2-trifluoromethyl-phenyl)-guinazolin-4-yl]-amine] here?
**A.** 1000 to 20000 nM

**Q.** `FC(F)(F)c1ccccc1-c1nc2c(c(Nc3n[nH]c4ccccc34)n1)CCCCCC2` [II-119, (1H-Indazol-3-yl)-[2-(2-trifluoromethyl-phenyl)-5,6,7,8,9,10-hexahydro-cyclooctapyrimidin-4-yl]-amine] was tested. Which Ki did it give?
**A.** < 100 nM

**Q.** With `O=c1cc2[nH]nc(Nc3nc(-c4ccccc4)nc4ccccc34)c2nn1-c1ccc(Oc2ccccc2)cc1` [III-139, [6-Oxo-5-(4-Phenoxy-phenyl)-5,6-dihydro-1H-pyrazolo[4,3-c]pyridazin-3-yl]-(2-phenyl-quinazolin-4-yl)-amine] as the compound, how does the Ki read?
**A.** 1000 to 20000 nM

**Q.** `FC(F)(F)c1ccccc1-c1nc(Nc2cc(-c3cccs3)[nH]n2)c2ccccc2n1` [II-46, [5-(Thiophen-2-yl)-2H-pyrazol-3-yl]-[2-(2-trifluoromethylphenyl)-quinazolin-4-yl]-amine] was tested. Which Ki did it give?
**A.** < 100 nM

**Q.** With `O=c1cc2[nH]nc(Nc3nc(-c4ccccc4)nc4ccccc34)c2nn1-c1ccc(Cl)cc1` [III-140, [5-(4-Chloro-phenyl)-6-oxo-5,6-dihydro-1H-pyrazolo[4,3-c]pyridazin-3-yl]-(2-phenyl-quinazolin-4-yl)-amine] as the compound, how does the Ki read?
**A.** 100 to 1000 nM

**Q.** Which Ki does the source give for `Cc1cc(Nc2nc(-c3ccc4c(c3)OCO4)nc3ccccc23)[nH]n1` [III-43, (2-Benzo[1,3]dioxol-5-yl-quinazolin-4-yl)-(5-methyl-2H-pyrazol-3-yl)-amine] here?
**A.** 100 to 1000 nM

**Q.** How did the Ki turn out when `Cc1nccn1-c1nc(Nc2[nH]nc3ccccc23)c2ccccc2n1` [III-142] was run?
**A.** 100 to 1000 nM

**Q.** For `Cc1nc(-c2ccccc2Cl)nc(Nc2n[nH]c3c(F)cc(F)cc23)c1C` [II-29, [2-(2-Chlorophenyl)-5,6-dimethyl-pyrimidin-4-yl]-(5,7-difluoro-1H-indazol-3-yl)-amine], which Ki is on record?
**A.** < 100 nM

**Q.** For `Cc1cccc(NC(=O)c2cc(Nc3nc(-c4ccccc4)nc4ccccc34)[nH]n2)c1` [III-94, (2-Phenyl-quinazolin-4-yl)-(5-m-tolylcarbamoyl-2H-pyrazol-3-yl)-amine], which Ki is on record?
**A.** 1000 to 20000 nM

**Q.** How did the Ki turn out when `Fc1cc(F)c2[nH]nc(Nc3nc(-c4ccccc4C(F)(F)F)nc4ccccc34)c2c1` [II-71, (5,7-Difluoro-1H-indazol-3-yl)-[2-(2-trifluoromethyl-phenyl)-quinazolin-4-yl]-amine] was run?
**A.** < 100 nM

**Q.** For `CC(C)(C)c1cc(Nc2nc(-c3ccccc3C(F)(F)F)nc3ccccc23)n[nH]1` [II-49, (5-tert-Butyl-2H-pyrazol-3-yl)-[2-(2-trifluoromethyl-phenyl)-quinazolin-4-yl]-amine], which Ki is on record?
**A.** 100 to 1000 nM

**Q.** For `CCCNC(=O)c1cc(Nc2nc(-c3ccccc3)nc3ccccc23)[nH]n1` [III-88, (2-Phenyl-quinazolin-4-yl)-(5-propylcarbamoyl-2H-pyrazol-3-yl)-amine], which Ki is on record?
**A.** 100 to 1000 nM

**Q.** How did the Ki turn out when `Fc1cccc2c(Nc3nc(-c4ccccc4C(F)(F)F)nc4c3CCC4)n[nH]c12` [II-114, (7-Fluoro-1H-indazol-3-yl)-[2-(2-trifluoromethyl-phenyl)-6,7-dihydro-5H-cyclopentapyrimidin-4-yl]-amine] was run?
**A.** < 100 nM

**Q.** Which Ki does the source give for `NC(=O)c1c[nH]nc1Nc1nc(-c2ccccc2C(F)(F)F)nc2ccccc12` [II-52, (4-Carbamoyl-2H-pyrazol-3-yl)-[2-(2-trifluoromethylphenyl)-quinazolin-4-yl]-amine] here?
**A.** 1000 to 20000 nM

**Q.** How did the Ki turn out when `Fc1cccc2c(Nc3nc(-c4ccccc4C(F)(F)F)nc4c3CCCC4)n[nH]c12` [II-7, (7-Fluoro-1H-indazol-3-yl)-[2-(2-trifluoromethyl-phenyl)-5,6,7,8-tetrahydroquinazolin-4-yl]-amine] was run?
**A.** < 100 nM

**Q.** How did the Ki turn out when `Cc1nc(-c2ccc(Cl)cc2Cl)nc(Nc2n[nH]c3ccccc23)c1C` [II-32, [2-(2,4-Dichlorophenyl)-5,6-dimethyl-pyrimidin-4-yl]-(1H-indazol-3-yl)-amine] was run?
**A.** 100 to 1000 nM

**Q.** `O=C(c1cc(Nc2nc(N3CCCCC3)nc3ccccc23)[nH]n1)N1CCCCC1` [III-123, [5-(Piperidine-1-carbonyl)-2H-pyrazol-3-yl]-[2-(piperidine-1-yl)-quinazolin-4-yl]-amine] was tested. Which Ki did it give?
**A.** 1000 to 20000 nM

**Q.** Which Ki does the source give for `Fc1ccc2[nH]nc(Nc3nc(-c4ccccc4C(F)(F)F)nc4c3CCCCC4)c2c1` [II-15, (5-Fluoro-1H-indazol-3-yl)-[2-(2-trifluoromethyl-phenyl)-6,7,8,9-tetrahydro-5H-cycloheptapyrimidin-4-yl]-amine] here?
**A.** < 100 nM

**Q.** How did the Ki turn out when `O=C(c1cc(Nc2nc(-c3ccccc3)nc3ccccc23)[nH]n1)N1CCOCC1` [III-97, [5-(Morpholine-4-carbonyl)-2H-pyrazol-3-yl]-(2-phenyl-quinazolin-4-yl)-amine] was run?
**A.** 1000 to 20000 nM

**Q.** For `Fc1cc(F)c2[nH]nc(Nc3nc(-c4ccccc4C(F)(F)F)nc4c3CCCC4)c2c1` [II-9, (5,7-Difluoro-1H-indazol-3-yl)-[2-(2-trifluoromethyl-phenyl)-5,6,7,8-tetrahydroquinazolin-4-yl]-amine], which Ki is on record?
**A.** < 100 nM

**Q.** With `COCc1cc(Nc2nc(-c3ccccc3C(F)(F)F)nc3ccccc23)n[nH]1` [II-56, (5-Methoxymethyl-2H-pyrazol-3-yl)-[2-(2-trifluoromethyl-phenyl)-quinazolin-4-yl]-amine] as the compound, how does the Ki read?
**A.** < 100 nM

**Q.** For `Fc1cc(F)c2[nH]nc(Nc3nc(-c4ccccc4C(F)(F)F)nc4c3CCCCC4)c2c1` [II-11, (5,7-difluoro-1H-indazol-3-yl)-[2-(2-trifluoromethyl-phenyl)-6,7,8,9-tetrahydro-5H-cycloheptapyrimidin-4-yl]-amine], which Ki is on record?
**A.** < 100 nM

**Q.** For `Clc1ccccc1-c1nc(Nc2n[nH]c3ccccc23)c2cccnc2n1` [II-110, [2-(2-Chloro-phenyl)-pyrido[2,3-d]pyrimidin-4-yl]-(1H-indazol-3-yl)-amine], which Ki is on record?
**A.** < 100 nM

**Q.** With `Cc1nc(-c2ccccc2C(F)(F)F)nc(Nc2n[nH]c3c(F)cc(F)cc23)c1C` [II-28, (5,7-Difluoro-1H-indazol-3-yl)-[5,6-Dimethyl-2-(2-trifluoromethyl-phenyl)-pyrimidin-4-yl]-amine] as the compound, how does the Ki read?
**A.** < 100 nM

**Q.** How did the Ki turn out when `CN1CCN(C(=O)c2cc(Nc3nc(-c4ccccc4)nc4ccccc34)[nH]n2)CC1` [III-98, [5-(1-Methylpiperazine-4-carbonyl)-2H-pyrazol-3-yl]-(2-phenyl-quinazolin-4-yl)-amine] was run?
**A.** 1000 to 20000 nM

**Q.** How did the Ki turn out when `Cc1cc(Nc2nc(-c3cccc4ccccc34)nc3ccccc23)n[nH]1` [II-208, (5-Methyl-2H-pyrazol-3-yl)-[2-(2-naphthyl-1-yl)-quinazolin-4-yl]-amine] was run?
**A.** < 100 nM

**Q.** With `Fc1cccc2c(Nc3nc(-c4ccccc4Cl)nc4c3CCC4)n[nH]c12` [II-117, [2-(2-Chloro-phenyl)-6,7-dihydro-5H-cyclopentapyrimidin-4-yl]-(7-fluoro-1H-indazol-3-yl)-amine] as the compound, how does the Ki read?
**A.** < 100 nM

**Q.** With `Cc1cc(Nc2nc(-c3ccccc3)nc3c2CCCCC3)n[nH]1` [III-8, (5-Methyl-2H-pyrazol-3-yl)-(2-phenyl-6,7,8,9-tetrahydro-5H-cycloheptapyrimidin-4-yl)-amine] as the compound, how does the Ki read?
**A.** < 100 nM

**Q.** With `CC1CCCCN1c1nc(Nc2n[nH]c3ccccc23)c2ccccc2n1` (centres unmarked) [III-146] as the compound, how does the Ki read?
**A.** 1000 to 20000 nM

**Q.** How did the Ki turn out when `Fc1cc(F)c2[nH]nc(Nc3cc(-c4ccccc4C(F)(F)F)nc4ccccc34)c2c1` [Compound V-8, (5,7-Difluoro-1H-indazol-3-yl)-[2-(2-trifluoromethyl-phenyl)-quinolin-4-yl]-amine] was run?
**A.** 1000 to 20000 nM

**Q.** How did the Ki turn out when `FC(F)(F)c1ccccc1-c1nc(Nc2n[nH]c3cccc(-n4cccc4)c23)c2ccccc2n1` [II-72, (4-Pyrrol-1-yl-1H-indazol-3-yl)-[2-(2-trifluoromethyl-phenyl)-quinazolin-4-yl]-amine] was run?
**A.** 1000 to 20000 nM
